Experimental data published in EP0369881A1, “Compounds derived from the 3-keto-delta 4,9-19-nor steroid structure, and their use as medicaments” (ROUSSEL-UCLAF, priority 1988, dated 1990).

Tests used:
[1] = target: T1, Récepteur glucocorticoïde du thymus de rat (Rattus norvegicus, UniProt P06536); experiment: Relative binding affinity, competition with tritiated dexamethasone, rat thymus cytosol; details: reference hormone dexaméthasone
T1 construct: les thymus sont prélevés et homogénéisés à 0°C; from tissue; host or cells: thymus cytosol (105 000 g supernatant) of adrenalectomised male Sprague Dawley rats
T1 sequence (P06536 1-795): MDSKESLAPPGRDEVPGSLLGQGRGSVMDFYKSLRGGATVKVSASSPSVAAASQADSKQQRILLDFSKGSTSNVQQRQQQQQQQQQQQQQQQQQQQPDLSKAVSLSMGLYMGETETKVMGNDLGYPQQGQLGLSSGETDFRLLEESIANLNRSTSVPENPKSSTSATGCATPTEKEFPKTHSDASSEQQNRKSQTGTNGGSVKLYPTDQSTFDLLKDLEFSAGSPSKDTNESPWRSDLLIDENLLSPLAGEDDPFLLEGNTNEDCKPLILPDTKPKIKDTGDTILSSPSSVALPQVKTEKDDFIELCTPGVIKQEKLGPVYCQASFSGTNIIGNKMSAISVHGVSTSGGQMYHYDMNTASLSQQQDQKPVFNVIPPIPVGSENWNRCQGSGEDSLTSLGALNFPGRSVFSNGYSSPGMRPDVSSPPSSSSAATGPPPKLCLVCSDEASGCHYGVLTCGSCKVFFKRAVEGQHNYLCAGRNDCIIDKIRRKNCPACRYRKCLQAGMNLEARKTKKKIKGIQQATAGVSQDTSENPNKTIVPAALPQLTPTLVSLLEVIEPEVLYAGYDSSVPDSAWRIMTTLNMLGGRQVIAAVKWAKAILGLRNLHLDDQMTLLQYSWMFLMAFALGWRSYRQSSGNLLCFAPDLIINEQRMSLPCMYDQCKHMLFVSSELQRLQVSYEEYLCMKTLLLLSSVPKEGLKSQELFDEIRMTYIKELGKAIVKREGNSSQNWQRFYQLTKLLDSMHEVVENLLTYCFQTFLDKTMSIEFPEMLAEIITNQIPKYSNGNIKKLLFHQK
Procedure: Récepteur glucocorticoïde du thymus de rat :
Des rats mâles Sprague Dawley EOPS de 160 à 200 g sont surrénalectomisés. 4 à 8 jours après cette ablation, les animaux sont sacrifiés, et les thymus sont prélevés et homogénéisés à 0°C dans un tampon Tris 10mM, saccharose 0,25M, dithiothreitol 2mM, HCl pH 7,4, à l'aide d'un Potter polyté-trafluoroéthylène-verre (1 g de tissu pour 10 ml de TS). L'homogénat est ensuite ultracentrifugé (105 000 g x 90 mn) à 0°C. Des aliquotes du surnageant ainsi obtenu, sont incubées à 0°C pendant un temps (t) avec une concentration constante (T) de dexaméthasone tritiée en présence de concentrations croissantes (O - 2 500.10⁻⁹M) soit de dexaméthasone froide, soit du produit froid à tester. La concentration de la dexaméthasone tritiée liée (B) est ensuite mesurée dans chaque incubat par la technique d'adsorption au charbon dextran.
(§1) Calcul de l'affinité relative de liaison:
(§2) Le calcul de l'affinité relative de liaison (ARL) est identique pour tous les récepteurs.
(§3) On trace les 2 courbes suivantes : le pourcentage de l'hormone tritiée liée (B)/(T) [formula] en fonction du logarithme de la concentration de l'hormone de référence froide et (B)/(T) [formula] en en fonction du logarithme de la concentration du produit froid testé.
(§4) On détermine la droite d'équation I₅₀ = ( (B)/(T) [formula] max + (B)/(T) [formula] min)/2. (B)/(T) [formula] max = Pourcentage de l'hormone tritiée liée pour une incubation de cette hormone tritiée à la concentration (T). (B)/(T) [formula] min = Pourcentage de l'hormone tritiée liée pour une incubation de cette hormone tritiée à la concentration (T) en présence d'un grand excès d'hormone froide (2500.10⁻⁹M).
(§5) Les intersections de la droite I₅₀ et des courbes permettent d'évaluer les concentrations de l'hormone de référence froide (CH) et du produit froid testé (CX) qui inhibent de 50% la liaison de l'hormone tritiée sur le récepteur.
(§6) L'affinité relative de liaison (ARL) du produit testé est déterminée par l'équation [formula]

[2] = target: T2, Récepteur progestogène de l'utérus de lapine (Oryctolagus cuniculus, UniProt P06186); experiment: Relative binding affinity, competition with tritiated Product R, rabbit uterus cytosol; details: reference hormone progestérone
T2 construct: les utérus sont prélevés, pesés et homogénéisés à 0°C; from tissue; host or cells: uterus cytosol (105 000 g supernatant) of estradiol-primed immature female rabbits
T2 sequence (P06186 1-930): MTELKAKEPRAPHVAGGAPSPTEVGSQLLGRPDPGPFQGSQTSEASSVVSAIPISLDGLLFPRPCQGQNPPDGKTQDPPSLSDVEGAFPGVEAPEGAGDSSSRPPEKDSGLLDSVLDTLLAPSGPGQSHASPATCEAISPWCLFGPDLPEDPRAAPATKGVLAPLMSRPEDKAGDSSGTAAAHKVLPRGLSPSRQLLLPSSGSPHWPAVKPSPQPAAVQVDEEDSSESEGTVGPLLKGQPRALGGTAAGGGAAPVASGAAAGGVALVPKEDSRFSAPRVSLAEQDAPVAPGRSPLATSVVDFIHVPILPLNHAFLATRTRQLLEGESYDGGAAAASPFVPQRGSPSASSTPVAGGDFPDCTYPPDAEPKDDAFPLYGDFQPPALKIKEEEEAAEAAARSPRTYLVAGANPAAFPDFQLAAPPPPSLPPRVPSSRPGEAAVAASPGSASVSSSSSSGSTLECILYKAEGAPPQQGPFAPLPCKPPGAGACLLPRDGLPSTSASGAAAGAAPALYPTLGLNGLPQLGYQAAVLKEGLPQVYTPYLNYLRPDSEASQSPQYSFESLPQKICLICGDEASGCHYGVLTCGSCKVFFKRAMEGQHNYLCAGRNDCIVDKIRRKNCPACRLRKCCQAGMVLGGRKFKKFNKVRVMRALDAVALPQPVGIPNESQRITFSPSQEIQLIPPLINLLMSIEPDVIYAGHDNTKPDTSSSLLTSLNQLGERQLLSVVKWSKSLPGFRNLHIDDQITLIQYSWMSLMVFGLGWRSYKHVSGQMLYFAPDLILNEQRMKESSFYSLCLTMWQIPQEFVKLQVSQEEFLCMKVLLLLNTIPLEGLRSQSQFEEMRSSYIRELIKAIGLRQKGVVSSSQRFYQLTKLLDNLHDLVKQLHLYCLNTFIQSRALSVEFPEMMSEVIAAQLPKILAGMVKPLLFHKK
Procedure: Récepteur progestogène de l'utérus de lapine :
Des lapines impubères d'environ 1 kg reçoivent une application cutanée de 25 microgrammes d'estradiol. 5 jours après ce traitement, les animaux sont sacrifiés, les utérus sont prélevés, pesés et homogénéisés à 0°C, à l'aide d'un Potter teflon-verre dans une solution tamponnée TS (Tris 10mM, saccharose 0,25 M, HCl pH 7,4) (1 g de tissu pour 50 ml de TS). L'homogénat est ensuite ultracentrifugé (105 000 g x 90 mn) à 0°C. Des aliquotes du surnageant ainsi obtenu, sont incubées à 0°C pendant un temps t, avec une concentration constante (T) de Produit R tritié (17,21-diméthyl 19-nor 4,9-pregnadiène-3,20-dione) en présence de concentrations croissantes (0 - 2 500. 10⁻⁹M) soit de R froid, soit de progestérone froide, soit du produit froid à tester. La concentration de R tritié lié (B) est ensuite mesurée dans chaque incubat par la technique d'adsorption au charbon dextran.
as §1, §2, §3, §4, §5, §6

| affinité relative de liaison (ARL) Glucocorticoïde ([1]; incubation 1H at 0°C) | affinité relative de liaison (ARL) Glucocorticoïde ([1]; incubation 24H at 0°C) | affinité relative de liaison (ARL) Progestogène ([2]; incubation 2H at 0°C) | affinité relative de liaison (ARL) Progestogène ([2]; incubation 24H at 0°C) | SMILES |
| --- | --- | --- | --- | --- |
| 156 | 139 | 70 | 351 | CSc1ccc([C@H]2C[C@@]3(C)[C@@H](CC[C@@]3(O)C#CCCl)[C@@H]3CCC4=CC(=O)CCC4=C32)cc1 [Exemple 4, 17alpha-(3-chloro 1-propynyl) 17béta-hydroxy 11béta-[4-(méthylthio)phényl] estra-4,9-dièn-3-one] |
| 133 | 99 | 72 | 86 | CSc1ccc([C@H]2C[C@@]3(C)[C@@H](CC[C@@]3(O)C#CCO)[C@@H]3CCC4=CC(=O)CCC4=C32)cc1 [Exemple 1, 17béta-hydroxy 17alpha-(3-hydroxy 1-propynyl) 11béta-[4-(méthylthio)phényl] estra-4,9-dien-3-one] |
| 142 | 169 | 55 | 225 | CSc1ccc([C@H]2C[C@@]3(C)[C@@H](CC[C@@]3(O)C#CCF)[C@@H]3CCC4=CC(=O)CCC4=C32)cc1 [Exemple 3, 17alpha-(3-fluoro 1-propynyl) 17béta-hydroxy 11béta-[4-(méthylthio)phényl] estra-4,9-dièn-3-one] |
